Test results published in ChEMBL document CHEMBL3046782, “Fungicidial Activity of Benthiavalicarb-isopropyl against Phytophthora infestans and Its Controlling Activity against Late Blight Diseases” (J Pestic Sci, 2005).
In brackets after ≈: the same amount, converted by molar mass.

Tested on: Phytophthora infestans
Assay: Antifungal activity against phenylamide-resistant Phytophthora infestans 7-1 assessed as inhibition of mycelial growth after 5 to 7 days
Assay type: functional, organism-based, 07-Jan
Conditions: for IC50: Phytophthora infestans, 07-Jan, read-out: I50

Compound: CC(C)OC(=O)N[C@H](C(=O)N[C@H](C)c1nc2ccc(F)cc2s1)C(C)C [BENTHIAVALICARB-ISOPROPYL]
- MIC: 0.1 µg/mL (≈ 0.262 µM)
- IC50: 0.04 µg/mL (≈ 0.105 µM)

Compound: COCC(=O)N(c1c(C)cccc1C)C(C)C(=O)OC (centres undefined) [METALAXYL]
- MIC: >10 µg/mL
- IC50: > 10 µg/mL
